# In ChEMBL document CHEMBL5532670, “Discovery of Tetrahydropyrazolopyrazine Derivatives as Potent and Selective MYT1 Inhibitors for the Treatment of Cancer” (J Med Chem, 2024):
# What was measured:
# [1] = in vivo; settings: Sprague-Dawley, rat, po, 5 mg/kg
# [2] = in vivo; settings: Sprague-Dawley, rat, iv, 1 mg/kg
# [3] = in vivo; settings: CD-1, mouse, po, 5 mg/kg
# [4] = in vivo; settings: CD-1, mouse, iv, 1 mg/kg
# [5] = in vivo; settings: CD-1, mouse, po, 5 mg/kg; remark: listed apart in the source
# [6] = in vitro; settings: mouse, hepatocytes
# [7] = AUC (0 to t) in CD-1 mouse at 5 mg/kg, po measured after 24 hrs; type: ADME, organism-based; settings: in vivo
# [8] = in vivo; settings: CD-1, mouse, iv, 1 mg/kg; remark: listed apart in the source
# [9] = MRT (0 to t) in CD-1 mouse at 1 mg/kg, iv measured after 24 hrs; type: ADME, organism-based; settings: in vivo
# [10] = MRT (0 to t) in Sprague-Dawley rat at 1 mg/kg, iv measured after 24 hrs; type: ADME, organism-based; settings: in vivo
# [11] = in vivo; settings: Sprague-Dawley, rat, iv, 1 mg/kg; remark: listed apart in the source
# [12] = in vivo; settings: Sprague-Dawley, rat, po, 5 mg/kg; remark: listed apart in the source
# [13] = AUC (0 to t) in Sprague-Dawley rat at 5 mg/kg, po measured after 24 hrs; type: ADME, organism-based; settings: in vivo
# [14] = in vivo; settings: CD-1, mouse, po, 5 mg/kg; remark: listed apart in the source
# [15] = in vivo; settings: Sprague-Dawley, rat, po, 5 mg/kg; remark: listed apart in the source
# [16] = Drug concentration in mouse plasma assessed as free fraction administered for 21 days and measured after 8 hrs post dose; type: ADME; settings: 504 h, time 21 day
# [17] = in vitro; settings: human, Caco-2
# [18] = Cmax in CD-1 mouse at 10 mg/kg, po measured after 24 hrs; type: ADME, organism-based; settings: in vivo
# [19] = Tmax in Sprague-Dawley rat at 10 mg/kg, po measured after 24 hrs; type: ADME, organism-based; settings: in vivo
# [20] = Oral bioavailability in Sprague-Dawley rat at 10 mg/kg measured after 24 hrs; type: ADME, organism-based; settings: in vivo
# [21] = Cmax in Sprague-Dawley rat at 10 mg/kg, po measured after 24 hrs; type: ADME, organism-based; settings: in vivo
# [22] = Tmax in CD-1 mouse at 10 mg/kg, po measured after 24 hrs; type: ADME, organism-based; settings: in vivo
# [23] = AUC (0 to t) in CD-1 mouse at 10 mg/kg, po measured after 24 hrs; type: ADME, organism-based; settings: in vivo
# [24] = Oral bioavailability in CD-1 mouse at 10 mg/kg measured after 24 hrs; type: ADME, organism-based; settings: in vivo
# [25] = AUC (0 to t) in CD-1 mouse at 30 mg/kg, po measured after 24 hrs; type: ADME, organism-based; settings: in vivo
# [26] = Tmax in Sprague-Dawley rat at 20 mg/kg, po measured after 24 hrs; type: ADME, organism-based; settings: in vivo
# [27] = Oral bioavailability in CD-1 mouse at 30 mg/kg measured after 24 hrs; type: ADME, organism-based; settings: in vivo
# [28] = Cmax in CD-1 mouse at 30 mg/kg, po measured after 24 hrs; type: ADME, organism-based; settings: in vivo
# [29] = Cmax in Sprague-Dawley rat at 20 mg/kg, po measured after 24 hrs; type: ADME, organism-based; settings: in vivo
# [30] = Oral bioavailability in Sprague-Dawley rat at 20 mg/kg measured after 24 hrs; type: ADME, organism-based; settings: in vivo
# [31] = Tmax in CD-1 mouse at 30 mg/kg, po measured after 24 hrs; type: ADME, organism-based; settings: in vivo
clearance at 24 h [2] [mL/min/kg],Vd at 24 h [4] [L/kg],CLhep predicted [6] [mL/min/kg],clearance at 24 h [8] [mL/min/kg],MRT last at 24 h [9] [min],MRT last at 24 h [10] [min],Vd at 24 h [11] [L/kg],Cp(f) [16] [nM],Papp A→B at 2 h [17] [×10⁻⁶ cm/s],Compound,other results
37.6,2.3,79.4,85.7,23.4,33.6,1.4,39.3,11,Cc1cc2c(C(N)=O)c(N)n(-c3c(C)ccc(O)c3C)c2nc1C [LUNRESERTIB],Cmax at 24 h [1]: 1360 ng/mL; Tmax at 24 h [3]: 24 min; bioavailability at 24 h [5]: 55.8%; AUC(0-t) at 24 h [7]: 539 ng·h/mL; Tmax at 24 h [12]: 15 min; AUC(0-t) at 24 h [13]: 1720 ng·h/mL; Cmax at 24 h [14]: 511 ng/mL; bioavailability at 24 h [15]: 78%
46.8,0.99,85.4,149,6.6,24.6,1.2,,1.48,Cc1ccc(O)c(C)c1-n1c(N)c(C(=O)N2CCn3nccc3C2)c2nc(C)c(C)nc21,Cmax [18]: 902 ng/mL; Tmax [19]: 15 min; bioavailability [20]: 50.9%; Cmax [21]: 1410 ng/mL; Tmax [22]: 15 min; AUC(0-t) at 24 h [23]: 330 ng·h/mL; bioavailability [24]: 29.3%
49.1,1.3,83.5,122,10.2,28.2,1.4,60.7,1,Cc1ccc(O)c(C)c1-n1c(N)c(C(=O)N2CCn3nccc3C2)c2nc(C3CC3)c(C)nc21,AUC(0-t) at 24 h [25]: 2310 ng·h/mL; Tmax [26]: 40.2 min; bioavailability [27]: 55.8%; Cmax [28]: 1800 ng/mL; Cmax [29]: 1780 ng/mL; bioavailability [30]: 55.9%; Tmax [31]: 15 min
